Laboratory results reported in US4374149A, “α-{[(Arylalkyl)amino]alkyl}-4-hydroxy-3-(lower-alkylsul finyl)benzenemethanols” (Sterling Drug Inc., priority 1978, dated 1983).
Structures can show the parent of a compound that is named as a salt.

Tests used:
[1] = test system: isolated rabbit ear artery; assay: Vasodilator activity, perfusion pressure in isolated rabbit ear artery
Text: (§1) Vasodilator activity was judged on the basis of observed reduction in perfusion pressure in the hind limb vasculature of the anesthetized dog determined according to the procedure described by Jandhyala et al., European J. Pharm. 17, 357 (1972), and also on the basis of percent reduction in perfusion pressure as measured in the isolated rabbit ear artery according to the method described by De LaLande et al., Aust. J. Exp. Biol. Med. Sci. 43, 639 (1965).
^d Vasodilation is expressed as the percentage reduction in perfusion

blood pressure = assay: Antihypertensive activity, sustained lowering of blood pressure, repeated oral medication, unanesthetized trained renal hypertensive dog; format: in vivo; details: for Actual percentage reduction in blood pressure observed at the indicated dose: 0.5 mg./kg.
Text: Antihypertensive activity was also judged on the basis of sustained reduction of blood pressure observed in the unanesthetized trained renal hypertensive dog following repeated oral medication according to the procedure described by Lape et al., Arch.
^b MED10 = minimum repeated oral daily dose required to effect a

β-adrenergic = β-adrenergic blocking activity, inhibition of isoproterenol-elicited heart rate increase in pentobarbitalized dog; format: in vivo; details: i.v.; for Dog β-blockade AED50 (approximate intravenous dose for 50% inhibition of isoproterenol-elicited heart rate increase): pentobarbitalized dog
Experimental: The β-adrenergic blocking activity was determined in the pentobarbitalized dog as judged by the ability of the test compound to inhibit the elevation in heart rate elicited by a 0.5 mcg./kg. i.v. injection of isoproterenol.
^e AED50 = approximate intravenous dose required to cause 50%

systolic blood pressure = assay: Antihypertensive activity, reduction in systolic blood pressure, single oral medication, unanesthetized spontaneous hypertensive rat; format: in vivo; details: P.O.; for Antihypertensive activity SH Rat AHD40 (single oral dose required to induce a 40 mm. average reduction in systolic blood pressure): unanesthetized SH rat
Experimental: Antihypertensive activity was determined on the basis of the observed reduction in systolic blood pressure measured according to the method of H. Kersten et al., J. Lab. and Clin. Med. 32, 1090 (1947) following a single oral medication in the unanesthetized spontaneous hypertensive rat described by Okamato et al., Japan Circulation J. 27, 282 (1963).
^a AHD40 = single oral dose required to induce a 40 mm. average

hind limb vasculature = assay: Vasodilator activity, perfusion pressure in hind limb vasculature of anesthetized dog; format: in vivo; details: for Vasodilator activity Dog-Leg Perfusion AED50 (approximate intraarterial dose for 50 reduction in perfusion pressure): acetate salt; for Actual percentage reduction in perfusion pressure observed at the indicated dose: 0.025 mg./kg. intraarterial
Text: as §1
^c AED50 = approximate intraarterial dose required to cause a 50

[2] = 1 × 10^-4 M, 100 µM, hydrochloride
[3] = 5 × 10^-5 M, 50 µM, acetate salt
[4] = intraarterial, anesthetized dog hind limb

Row | SMILES | Actual percentage reduction in blood pressure observed at the indicated dose (blood pressure; tid., hydrochloride) | Renal Hypertensive Dog MED10 (minimum repeated oral daily dose for sustained lowering of blood pressure of 10% or greater) (blood pressure; tid., hydrochloride) | Dog β-blockade AED50 (approximate intravenous dose for 50% inhibition of isoproterenol-elicited heart rate increase) (β-adrenergic; hydrochloride) | Antihypertensive activity SH Rat AHD40 (single oral dose required to induce a 40 mm. average reduction in systolic blood pressure) (systolic blood pressure; hydrochloride) | Dog β-blockade AED50 (approximate intravenous dose for 50% inhibition of isoproterenol-elicited heart rate increase) (β-adrenergic; acetate salt) | Antihypertensive activity SH Rat AHD40 (single oral dose required to induce a 40 mm. average reduction in systolic blood pressure) (systolic blood pressure; acetate salt) | Vasodilator activity Dog-Leg Perfusion AED50 (approximate intraarterial dose for 50 reduction in perfusion pressure) (hind limb vasculature; [4]) | Antihypertensive activity SH Rat AHD40 (single oral dose required to induce a 40 mm. average reduction in systolic blood pressure) (systolic blood pressure) | also measured
1 | COc1ccc(CCC(C)NCC(O)c2ccc(O)c([S+](C)[O-])c2)cc1 (single isomer, unassigned) [Example 10, 4-hydroxy-α-<{[3-(4-methoxyphenyl)-1-methylpropyl]amino}methyl>-3-(methylsulfinyl)benzenemethanol hydrochloride] | 8% | > 0.5 mg/kg | > 0.10 mg/kg | > 16.0 mg/kg | – | – | – | – | Rabbit Ear Artery vasodilation (percentage reduction in perfusion pressure from control level) ([1]; 2 × 10^-4 M, 200 µM): 50%; Actual percentage inhibition of heart rate increase above control level observed at the indicated dose (β-adrenergic; 0.1 mg./kg.): 23%; Actual reduction in blood pressure observed at the indicated dose (systolic blood pressure; 16.0 mg./kg., hydrochloride): -17 mm. Hg
2 | COc1ccc(CCC(C)NCC(O)c2ccc(O)c([S+](C)[O-])c2)cc1 (single isomer, unassigned) [Example 11, 4-hydroxy-α-<{[3-(4-methoxyphenyl)-1-methylpropyl]amino}methyl>-3-(methylsulfinyl)benzenemethanol hydrochloride] | 14% | < 0.5 mg/kg | 0.25 mg/kg | > 16.0 mg/kg | – | – | – | – | Rabbit Ear Artery vasodilation (percentage reduction in perfusion pressure from control level) [1, 2]: 38%; Actual reduction in blood pressure observed at the indicated dose (systolic blood pressure; 16.0 mg./kg., hydrochloride): -14 mm. Hg
3 | COc1ccc(CCC(C)NCC(O)c2ccc(O)c([S+](C)[O-])c2)cc1 (single isomer, unassigned) [Example 12, 4-hydroxy-α-<{[3-(4-methoxyphenyl)-1-methylpropyl]amino}methyl>-3-(methylsulfinyl)benzenemethanol hydrochloride] | 14% | < 0.5 mg/kg | 0.05 mg/kg | 5 mg/kg | – | – | – | – | Rabbit Ear Artery vasodilation (percentage reduction in perfusion pressure from control level) ([1]; 2 × 10^-4 M, 200 µM): 50%
4 | COc1ccc(CCC(C)NCC(O)c2ccc(O)c([S+](C)[O-])c2)cc1 (single isomer, unassigned) [Example 13C, 4-hydroxy-α-<{[3-(4-methoxyphenyl)-1-methylpropyl]amino}methyl>-3-(methylsulfinyl)benzenemethanol hydrochloride] | 17% | < 0.5 mg/kg | 0.0125 mg/kg | 3 mg/kg | – | – | – | – | Rabbit Ear Artery vasodilation (percentage reduction in perfusion pressure from control level) [1, 2]: 50%
5 | COc1ccc(CCC(C)NCC(O)c2ccc(O)c([S+](C)[O-])c2)cc1 (stereo not drawn) [Example 2H, 4-hydroxy-α-<{[3-(4-methoxyphenyl)-1-methylpropyl]amino}methyl>-3-(methylsulfinyl)benzenemethanol acetate salt] | – | – | – | – | 0.025 mg/kg | 9.0 mg/kg | 0.5 mg/kg | – | Rabbit Ear Artery vasodilation (percentage reduction in perfusion pressure from control level) [1, 3]: 20%
6 | COc1ccc(CCC(C)NCC(O)c2ccc(O)c([S+](C)[O-])c2)cc1 (stereo not drawn) [Example 4C, 4-hydroxy-α-<{[3-(4-methoxyphenyl)-1-methylpropyl]amino}methyl>-3-(methylsulfinyl)benzenemethanol acetate salt] | – | – | – | – | ~0.5 mg/kg | > 20.0 mg/kg | 0.5 mg/kg | – | Rabbit Ear Artery vasodilation (percentage reduction in perfusion pressure from control level) ([1]; 1 × 10^-4 M, 100 µM, acetate salt): 10%; Actual reduction in blood pressure observed at the indicated dose (systolic blood pressure; 20 mg./kg.): -33 mm. Hg
7 | COc1ccc(CCC(C)NCC(O)c2ccc(O)c([S+](C)[O-])c2)cc1 (stereo not drawn) [Example 5F, 4-hydroxy-α-<{[3-(4-methoxyphenyl)-1-methylpropyl]amino}methyl>-3-(methylsulfinyl)benzenemethanol] | – | – | – | – | – | – | – | 4.0 mg/kg | Rabbit Ear Artery vasodilation (percentage reduction in perfusion pressure from control level) ([1]; 5 × 10^-5 M, 50 µM): 50%; Actual percentage inhibition of heart rate increase above control level observed at the indicated dose (β-adrenergic; 0.25 mg./kg.): 70%; Dog β-blockade AED50 (approximate intravenous dose for 50% inhibition of isoproterenol-elicited heart rate increase) (β-adrenergic): < 0.25 mg/kg
8 | COc1ccc(CCC(C)NCC(O)c2ccc(O)c([S+](C)[O-])c2)cc1 (stereo not drawn) [Example 5G, 4-hydroxy-α-<{[3-(4-methoxyphenyl)-1-methylpropyl]amino}methyl>-3-(methylsulfinyl)benzenemethanol] | – | – | – | – | – | – | – | – | Rabbit Ear Artery vasodilation (percentage reduction in perfusion pressure from control level) ([1]; 1 × 10^-4 M, 100 µM): 71%
9 | COc1ccc(CCC(C)NCC(O)c2ccc(O)c([S+](C)[O-])c2)cc1 (stereo not drawn) [Example 6E, 4-hydroxy-α-<{[3-(4-methoxyphenyl)-1-methylpropyl]amino}methyl>-3-(methylsulfinyl)benzenemethanol acetate salt] | – | – | – | – | 0.25 mg/kg | 15.0 mg/kg | > 0.025 mg/kg | – | Rabbit Ear Artery vasodilation (percentage reduction in perfusion pressure from control level) [1, 3]: 58%; Actual percentage reduction in perfusion pressure observed at the indicated dose (hind limb vasculature): 25%
10 | COc1ccc(CCC(C)NCC(=O)c2ccc(OC(=O)c3ccccc3)c([S+](C)[O-])c2)cc1Br (stereo not shown) [Example 7E, 4'-hydroxy-2-{[3-(3-bromo-4-methoxyphenyl)-1-methylpropyl]-amino}-3'-(methylsulfinyl)acetophenone 4'-benzoate hydrochloride] | – | – | – | – | – | – | – | 30 mg/kg | Renal Hypertensive Dog MED10 (minimum repeated oral daily dose for sustained lowering of blood pressure of 10% or greater) (blood pressure; administered once per day): ~.10 mg/kg; Actual percentage inhibition of heart rate increase above control level observed at the indicated dose (β-adrenergic; 1.0 mg./kg.): 12%; Dog β-blockade AED50 (approximate intravenous dose for 50% inhibition of isoproterenol-elicited heart rate increase) (β-adrenergic): > 1.0 mg/kg
11 | COc1ccc(CCC(C)NCC(O)c2ccc(O)c([S+](C)[O-])c2)cc1 (stereo not drawn) [Example 9D, 4-hydroxy-α-<{[3-(4-methoxyphenyl)-1-methylpropyl]amino}methyl>-3-(methylsulfinyl)benzenemethanol acetate salt] | – | – | – | – | 0.0125 mg/kg | 20.0 mg/kg | > 0.025 mg/kg | – | Rabbit Ear Artery vasodilation (percentage reduction in perfusion pressure from control level) [1, 3]: 61%; Actual percentage reduction in perfusion pressure observed at the indicated dose (hind limb vasculature): 25%
12 | CC(=O)O.C[S+]([O-])c1cc(C(O)CNC(C)(C)Cc2ccccc2)ccc1O (stereo not drawn) [Example 14D, α-{[(1,1-dimethyl-2-phenylethyl)amino]-methyl}-4-hydroxy-3-(methylsulfinyl)benzenemethanol acetate salt] | – | – | – | – | – | – | – | 20.0 mg/kg | Rabbit Ear Artery vasodilation (percentage reduction in perfusion pressure from control level) ([1]; 1 × 10^-6 M, 1 µM): 29%; Actual percentage inhibition of heart rate increase above control level observed at the indicated dose (β-adrenergic; 1.0 mg./kg.): 87%; Dog β-blockade AED50 (approximate intravenous dose for 50% inhibition of isoproterenol-elicited heart rate increase) (β-adrenergic): < 1.0 mg/kg; ED50 (hind limb vasculature; Canis lupus familiaris, intraarterial, anesthetized dog hind limb, read-out: Vasodilator activity Dog-Leg Perfusion AED50 (approximate intraarterial dose for 50 reduction in perfusion pressure)): 0.5 mg/kg
13 | COc1ccc(CCCC(C)NCC(O)c2ccc(O)c([S+](C)[O-])c2)cc1 (stereo not drawn) [Example 21D, 4-hydroxy-α-<{[4-(4-methoxyphenyl)-1-methylbutyl]amino}methyl>-3-(methylsulfinyl)benzenemethanol acetate salt] | – | – | – | – | – | – | – | 40.0 mg/kg | Rabbit Ear Artery vasodilation (percentage reduction in perfusion pressure from control level) ([1]; 1 × 10^-3 M, 1000 µM): 50%
